Test system: 885724-159-R-J1-PDC KRAS PDC multicell spheroid viability
Experiment: Anticancer human tumor 885724-159-R-J1-PDC patient-derived pancreatic adenocarcinoma cell line growth inhibition [KRAS2]
Conditions: for IC50: curve of first compound; for viability, T/C: stronger effect = lower value
In short: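 Combination screen of spheroid viability in tumor-cell co-cultures with endothelial (HUVEC) and mesenchymal stem cell stroma. Each agent was tested in half-log dilutions, topping at clinical Cmax or at 10 microM without a known Cmax.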

[1] = second compound 0.1 µM, first compound 0.01 µM
[2] = second compound 0.1 µM, first compound 0.0316 µM
[3] = second compound 0.1 µM, first compound 0.1 µM
[4] = second compound 0.1 µM, first compound 0.316 µM
[5] = second compound 0.1 µM, first compound 1 µM
[6] = second compound 0.1 µM, first compound 3.16 µM
[7] = second compound 0.316 µM, first compound 0.01 µM
[8] = second compound 0.316 µM, first compound 0.0316 µM
[9] = second compound 0.316 µM, first compound 0.1 µM
[10] = second compound 0.316 µM, first compound 0.316 µM
[11] = second compound 0.316 µM, first compound 1 µM
[12] = second compound 0.316 µM, first compound 3.16 µM
[13] = second compound 1 µM, first compound 0.01 µM
[14] = second compound 1 µM, first compound 0.0316 µM
[15] = second compound 1 µM, first compound 0.1 µM
[16] = second compound 1 µM, first compound 0.316 µM
[17] = second compound 1 µM, first compound 1 µM
[18] = second compound 1 µM, first compound 3.16 µM
[19] = second compound 3.16 µM, first compound 0.01 µM
[20] = second compound 3.16 µM, first compound 0.0316 µM
[21] = second compound 3.16 µM, first compound 0.1 µM
[22] = second compound 3.16 µM, first compound 0.316 µM
[23] = second compound 3.16 µM, first compound 1 µM
[24] = second compound 3.16 µM, first compound 3.16 µM
[25] = second compound 10 µM, first compound 0.01 µM
[26] = second compound 10 µM, first compound 0.0316 µM
[27] = second compound 10 µM, first compound 0.1 µM
[28] = second compound 10 µM, first compound 0.316 µM
[29] = second compound 10 µM, first compound 1 µM
[30] = second compound 10 µM, first compound 3.16 µM
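Note: spheroids exposed to agents for 7 days before readout.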

Structure (SMILES): CC(=O)OC12COC1CC(O)C1(C)C(=O)C(O)C3=C(C)C(OC(=O)C(O)C(NC(=O)OC(C)(C)C)c4ccccc4)CC(O)(C(OC(=O)c4ccccc4)C21)C3(C)C (stereo not given) + COc1cc2nc(C)nc(NC(C)c3cc(N)cc(C(F)(F)F)c3)c2cc1OC1CCOC1
- IC50 (second compound 0.1 µM): > 3.16 µM
- IC50 (second compound 0.316 µM): > 3.16 µM
- IC50 (second compound 1 µM): > 3.16 µM
- IC50 (second compound 3.16 µM): > 3.16 µM
- IC50 (second compound 10 µM): > 3.16 µM
- viability, T/C [1]: 105%
- viability, T/C [2]: 116%
- viability, T/C [3]: 113%
- viability, T/C [4]: 122%
- viability, T/C [5]: 135%
- viability, T/C [6]: 132%
- viability, T/C [7]: 104%
- viability, T/C [8]: 112%
- viability, T/C [9]: 116%
- viability, T/C [10]: 125%
- viability, T/C [11]: 120%
- viability, T/C [12]: 126%
- viability, T/C [13]: 104%
- viability, T/C [14]: 130%
- viability, T/C [15]: 127%
- viability, T/C [16]: 132%
- viability, T/C [17]: 142%
- viability, T/C [18]: 141%
- viability, T/C [19]: 95.1%
- viability, T/C [20]: 104%
- viability, T/C [21]: 121%
- viability, T/C [22]: 111%
- viability, T/C [23]: 119%
- viability, T/C [24]: 119%
- viability, T/C [25]: 90.2%
- viability, T/C [26]: 105%
- viability, T/C [27]: 119%
- viability, T/C [28]: 121%
- viability, T/C [29]: 117%
- viability, T/C [30]: 111%

Structure (SMILES): CN(C)C/C=C/C(=O)Nc1cc2c(Nc3ccc(F)c(Cl)c3)ncnc2cc1O[C@H]1CCOC1 + COc1cc2nc(C)nc(NC(C)c3cc(N)cc(C(F)(F)F)c3)c2cc1OC1CCOC1
- IC50 (second compound 0.1 µM): > 0.1 µM
- IC50 (second compound 0.316 µM): > 0.1 µM
- IC50 (second compound 1 µM): > 0.1 µM
- IC50 (second compound 3.16 µM): > 0.1 µM
- IC50 (second compound 10 µM): > 0.1 µM
- viability, T/C (second compound 0.1 µM, first compound 0.000316 µM): 116%
- viability, T/C (second compound 0.1 µM, first compound 0.001 µM): 103%
- viability, T/C (second compound 0.1 µM, first compound 0.00316 µM): 97.1%
- viability, T/C [1]: 88.9%
- viability, T/C [2]: 79.6%
- viability, T/C [3]: 69.2%
- viability, T/C (second compound 0.316 µM, first compound 0.000316 µM): 98.7%
- viability, T/C (second compound 0.316 µM, first compound 0.001 µM): 102%
- viability, T/C (second compound 0.316 µM, first compound 0.00316 µM): 92.9%
- viability, T/C [7]: 89%
- viability, T/C [8]: 67.3%
- viability, T/C [9]: 66.7%
- viability, T/C (second compound 1 µM, first compound 0.000316 µM): 96.4%
- viability, T/C (second compound 1 µM, first compound 0.001 µM): 120%
- viability, T/C (second compound 1 µM, first compound 0.00316 µM): 110%
- viability, T/C [13]: 96%
- viability, T/C [14]: 79.1%
- viability, T/C [15]: 73.3%
- viability, T/C (second compound 3.16 µM, first compound 0.000316 µM): 88.4%
- viability, T/C (second compound 3.16 µM, first compound 0.001 µM): 102%
- viability, T/C (second compound 3.16 µM, first compound 0.00316 µM): 80.3%
- viability, T/C [19]: 72.5%
- viability, T/C [20]: 68%
- viability, T/C [21]: 61.8%
- viability, T/C (second compound 10 µM, first compound 0.000316 µM): 87.1%
- viability, T/C (second compound 10 µM, first compound 0.001 µM): 85.7%
- viability, T/C (second compound 10 µM, first compound 0.00316 µM): 75.2%
- viability, T/C [25]: 63.1%
- viability, T/C [26]: 60%
- viability, T/C [27]: 61.2%

Structure (SMILES): O=C(c1cc(Cc2n[nH]c(=O)c3ccccc23)ccc1F)N1CCN(C(=O)C2CC2)CC1 + COc1cc2nc(C)nc(NC(C)c3cc(N)cc(C(F)(F)F)c3)c2cc1OC1CCOC1
- IC50 (second compound 0.1 µM): > 10 µM
- IC50 (second compound 0.316 µM): > 10 µM
- IC50 (second compound 1 µM): > 10 µM
- IC50 (second compound 3.16 µM): > 10 µM
- IC50 (second compound 10 µM): > 10 µM
- viability, T/C [2]: 129%
- viability, T/C [3]: 122%
- viability, T/C [4]: 110%
- viability, T/C [5]: 113%
- viability, T/C [6]: 98.2%
- viability, T/C (second compound 0.1 µM, first compound 10 µM): 95%
- viability, T/C [8]: 113%
- viability, T/C [9]: 106%
- viability, T/C [10]: 104%
- viability, T/C [11]: 103%
- viability, T/C [12]: 98%
- viability, T/C (second compound 0.316 µM, first compound 10 µM): 91.5%
- viability, T/C [14]: 129%
- viability, T/C [15]: 134%
- viability, T/C [16]: 132%
- viability, T/C [17]: 115%
- viability, T/C [18]: 111%
- viability, T/C (second compound 1 µM, first compound 10 µM): 91.4%
- viability, T/C [20]: 91.4%
- viability, T/C [21]: 102%
- viability, T/C [22]: 94.8%
- viability, T/C [23]: 95.2%
- viability, T/C [24]: 91.9%
- viability, T/C (second compound 3.16 µM, first compound 10 µM): 81.7%
- viability, T/C [26]: 97%
- viability, T/C [27]: 102%
- viability, T/C [28]: 98.4%
- viability, T/C [29]: 92.5%
- viability, T/C [30]: 107%
- viability, T/C (second compound 10 µM, first compound 10 µM): 93.3%

Reference: PubChem BioAssay AID1963861 (Molecular Pharmacology Branch, DTP, NCI, 2024)
